# According to patent publication US11021545B2, “Multimodal cancer therapy comprising chimeric viral/nonviral nanoparticles and anticancer agents” (The Regents of the University of California, priority 2018, dated 2021):
# Tested on: BCR-ABL+ FL 5.12 p190 cells
# Assay: cells
# Conditions: Mus musculus, FL5.12, read-out: IC50 of dasatinib without ChNPs
# Protocol: Viability was tested three days after delivery. […] After 24 h, PBS, BIM AAV alone, MCL-1 siRNA alone, mixture of BIM AAV and siRNA, and various ChNPs (Null/Scr, Null/MCL-1, BIM/Scr, BIM/MCL-1 ChNPs) are added to the cells at different BIM AAV and MCL-1 siRNA concentrations. To measure cell viability, the cells maintained with fresh media everyday are pelleted by centrifugation (2000 rpm, 5 min, 4° C.) and resuspended in fresh media. The cells in 90 μL medium then are transferred into a 96-well plate where MTT (5 mg/mL in 10 μL PBS) is subsequently added. After 4 h of incubation at 37° C., the well plate is centrifuged at 2000 rpm and 4° C. for 5 min, and the media is replaced by 100 μL DMSO per well. The relative cell viability is quantified by comparing absorptions at 570 nm using a microplate reader (Synergy H1, Biotek), based on the absorption in the wells containing nontreated cells.
smiles,measurement,value
Cc1nc(Nc2ncc(C(=O)Nc3c(C)cccc3Cl)s2)cc(N2CCN(CCO)CC2)n1 [dasatinib],IC50,1 nM
